pEC50: −log10 of the molar value. A value given as a limit tells only on which side of the number the result lay.

In assay [1] the test system is db/db mice. The assay is described as follows: Fasting blood glucose in db/db mice during 14 days of oral administration. Format: in vivo, mouse. The settings on record: oral once a day, enantiomers 20 mg/kg, rosiglitazone 5 mg/kg, 6 h fasting; for Fasting blood glucose, average value, Day 0: Day 0, n = 10; for Fasting blood glucose, average value, Day 3: Day 3, n = 10; for Fasting blood glucose, average value, Day 6: Day 6, n = 10; for Fasting blood glucose, average value, Day 9: Day 9, n = 10; for Fasting blood glucose, average value, Day 12: Day 12, n = 10; for Fasting blood glucose, average value, Day 14: Day 14, n = 10. Here is the method:
(§1) The route of administration was oral, the dose was 20 mg/kg in the administration group and 5 mg/kg in the control group, the frequency of administration was once a day, and the administration period was 14 days. […] On days 0, 3, 6, 9, 12, and 14, after fasting for 6 hours after administration, blood was collected from the tail vein and fasting blood glucose levels was measured by a blood glucose meter and recorded.

A further assay has as its target T1, human PPARα (Homo sapiens, UniProt Q07869).
T1 construct: expressed in transfected cells; host or cells: L-02
T1 sequence (Q07869 1-468): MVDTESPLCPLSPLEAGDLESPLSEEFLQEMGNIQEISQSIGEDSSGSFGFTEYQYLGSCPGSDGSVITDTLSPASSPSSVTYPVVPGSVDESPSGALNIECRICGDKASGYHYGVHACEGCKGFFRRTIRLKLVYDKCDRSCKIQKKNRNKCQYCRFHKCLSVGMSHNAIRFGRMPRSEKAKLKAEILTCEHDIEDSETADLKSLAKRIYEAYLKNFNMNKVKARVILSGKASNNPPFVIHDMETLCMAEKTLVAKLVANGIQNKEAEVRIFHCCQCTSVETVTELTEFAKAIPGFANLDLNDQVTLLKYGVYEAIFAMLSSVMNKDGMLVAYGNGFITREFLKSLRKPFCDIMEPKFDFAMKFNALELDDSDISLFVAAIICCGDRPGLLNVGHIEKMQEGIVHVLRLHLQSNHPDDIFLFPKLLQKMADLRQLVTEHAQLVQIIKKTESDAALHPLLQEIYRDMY
Put plainly: PPARα in vitro reporter gene assay (PPRE-luciferase) in L-02 cells. Format: cell-based. The settings on record: 24 h after compound addition, luciferase corrected by GFP, read-out: EC50 (semi-activating activity) activating PPARα. Here is the method:
The PPARα reporter gene detection system comprises a pCDNA3.1 luciferase expression plasmid (PPRE enhancer element was inserted into the upstream of the promoter), a green fluorescent protein GFP expression plasmid, and a human PPARα expression plasmid.
(§2) The above plasmids were co-transfected (Fugene 6.0 transfection reagent) into human hepatoma cell line L-02. 48 hours after transfection, different concentrations of test compounds were added. 24 hours after administration, the cells were treated with a luciferase assay kit (Promega E1910) and the fluorescence intensity of GFP (wavelength 485-527 nm) and luciferase substrate (wavelength 562 nm) were detected using a fluorescence detector (Fluoroskan Ascent FL) respectively. The GFP signal was used as an internal reference to correct the detected luciferase substrate signal, and a relative reporter activation intensity was obtained by comparing the above corrected signal to the blank control (without treatment of the compounds). The semi-activating activity (EC50) of the test compound was calculated from concentration gradient data.
A general note: A reporter such as luciferase makes a cellular process visible.

The target in assay [2] is T2, RXR/PPAR-6 heterodimer (PPARδ) (Homo sapiens, UniProt Q03181).
T2 construct: expressed in transfected cells; host or cells: L-02
T2 sequence (Q03181 1-441): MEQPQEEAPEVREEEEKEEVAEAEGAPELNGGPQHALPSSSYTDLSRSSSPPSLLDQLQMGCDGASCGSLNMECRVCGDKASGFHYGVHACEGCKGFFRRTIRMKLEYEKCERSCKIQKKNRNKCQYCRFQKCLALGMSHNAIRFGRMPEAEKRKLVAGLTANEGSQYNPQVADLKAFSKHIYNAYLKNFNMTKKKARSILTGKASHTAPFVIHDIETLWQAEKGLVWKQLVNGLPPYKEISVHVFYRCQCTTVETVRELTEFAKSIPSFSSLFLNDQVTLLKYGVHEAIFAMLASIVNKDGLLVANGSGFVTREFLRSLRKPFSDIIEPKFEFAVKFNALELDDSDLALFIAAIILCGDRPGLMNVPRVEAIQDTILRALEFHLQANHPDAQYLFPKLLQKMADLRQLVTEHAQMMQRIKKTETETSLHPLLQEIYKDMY
T2 sequence (P19793 1-462 partner): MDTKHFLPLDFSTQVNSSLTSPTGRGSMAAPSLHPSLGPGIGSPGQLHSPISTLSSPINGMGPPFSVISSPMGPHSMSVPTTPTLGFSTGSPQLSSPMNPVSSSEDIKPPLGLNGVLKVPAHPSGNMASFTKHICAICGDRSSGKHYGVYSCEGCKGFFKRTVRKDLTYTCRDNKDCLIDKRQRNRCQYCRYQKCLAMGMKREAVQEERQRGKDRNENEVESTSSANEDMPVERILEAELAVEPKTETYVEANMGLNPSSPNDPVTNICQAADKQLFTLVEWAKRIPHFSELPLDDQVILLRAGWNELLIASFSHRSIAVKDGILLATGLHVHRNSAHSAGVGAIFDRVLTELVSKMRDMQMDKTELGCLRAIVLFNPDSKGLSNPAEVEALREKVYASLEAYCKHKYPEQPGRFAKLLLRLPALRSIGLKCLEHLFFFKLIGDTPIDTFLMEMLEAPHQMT
The assay is described as follows: PPARδ in vitro reporter gene assay (pGL3-PPRE reporter, PPARδ and RXR plasmids) in L-02 cells. Format: cell-based. The settings on record: 24 h after compound addition, luciferase corrected by GFP, read-out: EC50 (semi-activating activity) activating PPAR-6. Here is the method:
The PPARδ reporter gene detection system comprises a pGL3-PPRE fluorescent reporter gene plasmid (PPRE enhancer element was inserted into the upstream of the promoter), PPARδ expression plasmid, RXR expression plasmid, and a green fluorescent protein GFP expression plasmid.
as §2, with “Ascent FL),” for “Ascent FL)”, “signal is” for “signal was”

Assay [3] concerns db/db mice. The assay is described as follows: Glucose tolerance test (OTGG) in db/db mice after 14 days of administration. Format: in vivo, mouse. The settings on record: n = 10; for Blood glucose in glucose tolerance test, average value, 15 min: 15 min after oral 2 g/kg glucose; for Blood glucose in glucose tolerance test, average value, 30 min: 30 min after oral 2 g/kg glucose; for Blood glucose in glucose tolerance test, average value, 60 min: 60 min after oral 2 g/kg glucose; for Blood glucose in glucose tolerance test, average value, 120 min: 120 min after oral 2 g/kg glucose; for Glucose tolerance test AUC, average value: oral 2 g/kg glucose, 0-120 min; for Blood glucose in glucose tolerance test, average value, 0 min: overnight fast, before oral 2 g/kg glucose (0 min). Here is the method:
as §1
After 14 days of administration, the animals were fasted overnight (<10 hours), and orally given 2 g/kg of glucose on the next day. Blood was collected from the tail vein at the 0 (pre-administration or fasting blood glucose level), 15, 30, 60 and 120 minutes after administration, respectively, and blood glucose levels were then measured by blood glucose meter and recorded.

The target of another assay is T3, RXR/PPARγ heterodimer (Homo sapiens, UniProt P37231).
T3 construct: expressed in transfected cells; host or cells: L-02
T3 sequence (P37231 1-505): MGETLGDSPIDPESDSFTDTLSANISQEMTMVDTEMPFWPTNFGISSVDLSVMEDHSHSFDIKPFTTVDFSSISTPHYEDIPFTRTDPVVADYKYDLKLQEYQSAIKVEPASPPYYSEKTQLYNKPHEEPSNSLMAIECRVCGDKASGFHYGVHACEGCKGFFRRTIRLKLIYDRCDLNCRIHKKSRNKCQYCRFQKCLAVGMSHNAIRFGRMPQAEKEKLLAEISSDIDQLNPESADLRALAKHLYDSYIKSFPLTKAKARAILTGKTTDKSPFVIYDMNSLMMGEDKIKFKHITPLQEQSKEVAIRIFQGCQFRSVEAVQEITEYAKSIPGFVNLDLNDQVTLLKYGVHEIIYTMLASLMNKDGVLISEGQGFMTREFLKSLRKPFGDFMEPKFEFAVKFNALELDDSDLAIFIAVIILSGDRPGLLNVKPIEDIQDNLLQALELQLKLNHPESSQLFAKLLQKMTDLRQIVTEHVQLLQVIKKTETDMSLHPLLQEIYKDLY
T3 sequence (P19793 1-462 partner): T2 sequence (P19793 1-462 partner)
Put plainly: PPARγ in vitro reporter gene assay (pACOX reporter, PPARγ and RXR plasmids) in L-02 cells. The settings on record: 24 h after compound addition, luciferase corrected by GFP, read-out: EC50 (semi-activating activity) activating PPARγ. It is filed as cell-based. Here is the method:
The PPARγ reporter gene detection system comprises a pACOX fluorescent reporter gene plasmid (the promoter comprises PPRE sequence), PPARγ expression plasmid, RXR expression plasmid, and a green fluorescent protein GFP expression plasmid.
as §2, with “FL),” for “FL)”

The term pEC50 denotes the negative decadic logarithm of the EC50, by convention in mol/L. Take `O=C(c1ccc(F)cc1)c1ccccc1NC(Cc1ccc(OCCn2c3ccccc3c3ccccc32)cc1)C(=O)O` (single isomer, unassigned; (+)) [Enantiomer 2, (+)-2-[(2-(4-fluorobenzoyl)phenyl)amino]-3-[(4-(2-carbazole-ethoxy)phenyl)]propionic acid]: in the assay with db/db mice [1], the “Fasting blood glucose, average value, Day 0” value (shortened to “Fasting blood glucose … Day 0”) was determined as 18.86; the “Fasting blood glucose, average value, Day 3” value (shortened to “Fasting blood glucose … Day 3”) came to 23.99; the “Fasting blood glucose, average value, Day 6” value (shortened to “Fasting blood glucose … Day 6”) is 20.03; the “Fasting blood glucose, average value, Day 9” value (shortened to “Fasting blood glucose … Day 9”) is listed as 26.01. In addition, in the assay on db/db mice [1], the “Fasting blood glucose, average value, Day 12” value (shortened to “Fasting blood glucose … Day 12”) is reported as 26.44 and the “Fasting blood glucose, average value, Day 14” value (“Fasting blood glucose … Day 14” below) is 17.18. For the same molecule, the pEC50 on human PPARα is 5.27. In addition, the negative logarithm of the EC50 (pEC50) in assay [2] is below 5.00. Moreover, in the assay on db/db mice [3], the “Blood glucose in glucose tolerance test, average value, 15 min” value (from here on “Blood glucose … 15 min”) is reported as 31.87; the “Blood glucose in glucose tolerance test, average value, 30 min” value (shortened to “Blood glucose … 30 min”) was 33.3; the “Blood glucose in glucose tolerance test, average value, 60 min” value (“Blood glucose … 60 min” below) was determined as 30.94; the “Blood glucose in glucose tolerance test, average value, 120 min” value (from here on “Blood glucose … 120 min”) is listed as 25.75. In the assay with db/db mice [3], the “Glucose tolerance test AUC, average value” is recorded as 59.16 and the “Blood glucose in glucose tolerance test, average value, 0 min” value (“Blood glucose … average value, 0 min” below) is 17.18. In addition, the pEC50 at RXR/PPARγ heterodimer was 5.57.
For `O=C(c1ccc(F)cc1)c1ccccc1NC(Cc1ccc(OCCn2c3ccccc3c3ccccc32)cc1)C(=O)O` (single isomer, unassigned; (-)) [Enantiomer 1, (−)-2-[(2-(4-fluorobenzoyl)phenyl)amino]-3-[(4-(2-carbazole-ethoxy)phenyl)]propionic acid], in the assay on db/db mice [1], the “Fasting blood glucose … Day 0” value is on record as 18.43; the “Fasting blood glucose … Day 3” value is given as 18.2; the “Fasting blood glucose … Day 6” value worked out at 14.7; the “Fasting blood glucose … Day 9” value was 18.14. Moreover, in the assay with db/db mice [1], the “Fasting blood glucose … Day 12” value turned out to be 16.18 and the “Fasting blood glucose … Day 14” value came out at 10.98. In addition, at human PPARα, the pEC50 was 5.95. Further, in assay [2], the pEC50 is 5.71. For the same molecule, in the assay with db/db mice [3], the “Blood glucose … 15 min” value amounted to 28.02; the “Blood glucose … 30 min” value is 32.26; the “Blood glucose … 60 min” value stood at 26.6; the “Blood glucose … 120 min” value came out at 14.69. Also, in the assay with db/db mice [3], the “Glucose tolerance test AUC, average value” came out at 47.77 and the “Blood glucose … average value, 0 min” value came out at 10.98. Moreover, the pEC50 on RXR/PPARγ heterodimer is 7.12.
As for `CN(CCOc1ccc(CC2SC(=O)NC2=O)cc1)c1ccccn1` (centres unmarked) [rosiglitazone, reference compound], in the assay on db/db mice [1], the “Fasting blood glucose … Day 0” value was 19.09; the “Fasting blood glucose … Day 3” value is reported as 13.58; the “Fasting blood glucose … Day 6” value is recorded as 13.8; the “Fasting blood glucose … Day 9” value is 15.05. Besides, in the assay with db/db mice [1], the “Fasting blood glucose … Day 12” value is listed as 14.44 and the “Fasting blood glucose … Day 14” value is listed as 11.29. In the assay with db/db mice [3], the “Blood glucose … 15 min” value is 28.11; the “Blood glucose … 30 min” value is 31.22; the “Blood glucose … 60 min” value stood at 25.08; the “Blood glucose … 120 min” value was 13.61. Also, in the assay on db/db mice [3], the “Blood glucose … average value, 0 min” value was determined as 11.29.
